The test concerns the target T1, Human Factor XIIa (Homo sapiens, UniProt P00748).
T1 construct: Human Factor XIIa (Enzyme Research Laboratories) was incubated; purchased Enzyme Research Laboratories
T1 sequence (P00748 373-615 limits assumed): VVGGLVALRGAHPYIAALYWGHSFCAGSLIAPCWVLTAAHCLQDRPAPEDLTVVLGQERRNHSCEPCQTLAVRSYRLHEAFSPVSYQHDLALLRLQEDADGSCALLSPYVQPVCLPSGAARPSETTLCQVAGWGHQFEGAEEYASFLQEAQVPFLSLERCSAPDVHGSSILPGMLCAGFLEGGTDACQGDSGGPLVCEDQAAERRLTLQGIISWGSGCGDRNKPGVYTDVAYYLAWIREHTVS
T1 sequence (P00748 20-372 partner limits assumed): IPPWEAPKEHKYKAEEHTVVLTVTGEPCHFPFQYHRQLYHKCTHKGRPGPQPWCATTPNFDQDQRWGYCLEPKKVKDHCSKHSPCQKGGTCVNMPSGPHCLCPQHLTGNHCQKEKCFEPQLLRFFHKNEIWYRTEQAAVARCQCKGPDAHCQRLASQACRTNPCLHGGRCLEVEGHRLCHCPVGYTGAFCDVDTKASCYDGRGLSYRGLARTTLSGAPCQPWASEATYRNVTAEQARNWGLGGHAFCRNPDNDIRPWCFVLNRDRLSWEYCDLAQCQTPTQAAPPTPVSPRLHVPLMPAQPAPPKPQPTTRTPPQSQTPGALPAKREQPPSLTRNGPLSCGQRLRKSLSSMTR
Kind of test: Determination of FXIIa inhibitory activity in vitro (fluorogenic substrate H-DPro-Phe-Arg-AFC). It is filed as biochemical. To be noted: 25° C., residual enzyme activity (initial rate).

One may read the IC50 as the midpoint of a concentration-inhibition curve. `Nc1nccc2cc(CNC(=O)c3cc(Cl)c(COCCCN4CCCCC4)s3)ccc12` [Example 7.23] yielded an IC50 of 1 to 3 µM. In the case of `CN(Cc1sc(C(=O)NCc2ccc3c(N)nccc3c2)cc1Cl)C1CCOCC1` [Example 2.46] it was 10 to 40 µM; in that of `Nc1nccc2cc(CNC(=O)c3cc(Cl)c(CN4CCc5ncccc5C4)s3)ccc12` [Example 5.10], 3 to 10 µM. In the case of `Cn1cnc2cc(OCc3sc(C(=O)NCc4ccc5c(N)nccc5c4)cc3Cl)ccc21` [Example 7.02] it was 10 to 40 µM; in that of `Nc1nccc2cc(CNC(=O)c3cc(Cl)c(CNCC4CCOCC4)s3)ccc12` [Example 2.10], 10 to 40 µM. Regarding `CN1CCC(CCn2nccc2C(=O)NCc2cc3c(N)nccc3s2)CC1` [Example 46.01, N-((4-aminothieno[3,2-c]pyridin-2-yl)methyl)-1-(2-(1-methylpiperidin-4-yl)ethyl)-1H-pyrazole-5-carboxamide], the concentration for half-maximal inhibition (IC50) fell in the range of 10 to 40 µM.

As for `Nc1nccc2cc(CNC(=O)c3cc(Cl)c(CNCc4ccc(N5CCCCC5=O)cc4)s3)ccc12` [Example 2.41], the IC50 lay within 10 to 40 µM. Regarding `CN1CCCN(Cc2sc(C(=O)NCc3ccc4c(N)nccc4c3)cc2Cl)CC1` [Example 5.02], the IC50 lay within 3 to 10 µM. Compound `Nc1nccc2cc(CNC(=O)c3cc(Cl)c(COCCCN4CCOCC4)s3)ccc12` [Example 7.25] displayed an IC50 of 3 to 10 µM.

Take `CN(C)CCCOc1cccc(CN(C)Cc2sc(C(=O)NCc3ccc4c(N)nccc4c3)cc2Cl)c1` [Example 2.45]: the IC50 was in the range of 3 to 10 µM.

In turn, `Nc1nccc2cc(CNC(=O)c3cc(Cl)c(COCCCc4ccncc4)s3)ccc12` [Example 7.24] gave an IC50 of 10 to 40 µM. Consider `CN(CCOCc1sc(C(=O)NCc2ccc3c(N)nccc3c2)cc1Cl)Cc1ccccc1` [Example 7.17], for which the 50% inhibitory concentration (IC50) fell in the range of 10 to 40 µM. In the case of `CN1CCC(CCn2ccc(C(=O)NCc3ccc4c(N)nccc4c3)n2)CC1` [Example 51.06] it was 1 to 3 µM. `CC(=O)N1CCN(Cc2sc(C(=O)NCc3ccc4c(N)nccc4c3)cc2Cl)CC1` [Example 5.05] had an IC50 of 10 to 40 µM. The same measure for `CN(C)c1ccc(COCc2sc(C(=O)NCc3ccc4c(N)nccc4c3)cc2Cl)cc1` [Example 7.30]: 10 to 40 µM; for `COc1ccc(NCc2sc(C(=O)NCc3ccc4c(N)nccc4c3)cc2Cl)cc1` [Example 2.48]: 10 to 40 µM; for `Nc1nccc2cc(CNC(=O)c3cc(Cl)c(CNCCn4cncn4)s3)ccc12` [Example 2.54]: 3 to 10 µM. As to `Nc1nccc2cc(CNC(=O)c3cc(Cl)c(CN4CCC(F)(F)C4)s3)ccc12` [Example 5.08], the IC50 was in the range of 10 to 40 µM.

For the compound `COc1ccc(O)c(Cc2sc(C(=O)NCc3ccc4c(N)nccc4c3)cc2Cl)c1` [Example 25.06], the IC50 lay within 10 to 40 µM. `CCOc1ccc(Cn2nccc2C(=O)NCc2ccc3c(N)nccc3c2)cc1` [Example 35.09] showed an IC50 of 10 to 40 µM. In the case of `Nc1nccc2cc(CNC(=O)c3cc(Cl)c(CN4Cc5ccccc5C4)s3)ccc12` [Example 5.09] it was 10 to 40 µM.

In turn, `CN1CCC(CCc2csc(C(=O)NCc3ccc4c(N)nccc4c3)c2)CC1` [Example 25.12] registered an IC50 of 3 to 10 µM. `CN(C)CCNCc1sc(C(=O)NCc2ccc3c(N)nccc3c2)cc1Cl` [Example 2.16] returned an IC50 of 3 to 10 µM. In the case of `CN1CCC(Nc2csc(C(=O)NCc3ccc4c(N)nccc4c3)c2)CC1` [Example 25.16] it was 10 to 40 µM; in that of `Nc1nccc2cc(CNC(=O)c3cc(Cl)c(CN4CCN(Cc5cccnc5)CC4)s3)ccc12` [Example 5.01], 10 to 40 µM. Compound `CN(Cc1sc(C(=O)NCc2ccc3c(N)nccc3c2)cc1Cl)CC1CCN(c2ccncc2)CC1` [Example 2.44] registered an IC50 of 3 to 10 µM.

On to `Nc1nccc2cc(CNC(=O)c3cc(Cl)c(COCCCc4ccccn4)s3)ccc12` [Example 7.29], for which the concentration for half-maximal inhibition (IC50) lay within 10 to 40 µM. In the case of `Cc1cc(CCC2CCN(C)CC2)c(C(=O)NCc2ccc3c(N)nccc3c2)s1` [Example 26.12] it was 3 to 10 µM; in that of `CN(C)Cc1sc(C(=O)NCc2ccc3c(N)nccc3c2)cc1Cl` [Example 2.01], 10 to 40 µM; in that of `Nc1nccc2cc(CNC(=O)c3cc(Cl)c(CN4CCN(c5cnccn5)CC4)s3)ccc12` [Example 5.15], 10 to 40 µM. `CN1CCN(c2ccccc2CNCc2sc(C(=O)NCc3ccc4c(N)nccc4c3)cc2Cl)CC1` [Example 2.39] gave an IC50 of 10 to 40 µM. The same measure for `Cc1sc(C(=O)NCc2ccc3c(N)nccc3c2F)cc1Cl` [Example 25.104, N-((1-Amino-5-fluoroisoquinolin-6-yl)methyl)-4-chloro-5-methylthiophene-2-carboxamide]: 10 to 40 µM. For the compound `N#Cc1ccc(CNCc2sc(C(=O)NCc3ccc4c(N)nccc4c3)cc2Cl)cc1` [Example 2.50], the IC50 fell in the range of 10 to 40 µM. As for `Nc1nccc2cc(CNC(=O)c3cc(Cl)c(COCCN4CCCCC4)s3)ccc12` [Example 7.07], the IC50 lay in the range of 3 to 10 µM. The compound `CC(=O)N1CCC(CCn2ccc(C(=O)NCc3ccc4c(N)nccc4c3)n2)CC1` [Example 51.08] displayed a 50% inhibitory concentration (IC50) of 10 to 40 µM. Regarding `Nc1nccc2cc(CNC(=O)c3cc(Cl)c(COCc4ccncc4)s3)ccc12` [Example 7.20], the IC50 lay within 3 to 10 µM. In the case of `CC(C)CCNCc1sc(C(=O)NCc2ccc3c(N)nccc3c2)cc1Cl` [Example 2.26] it was 10 to 40 µM. Regarding `Nc1nccc2cc(CNC(=O)c3cc(Cl)c(COCc4cccnc4)s3)ccc12` [Example 7.19], the IC50 lay within 3 to 10 µM. The compound `CN1CCC(CCCn2nccc2C(=O)NCc2ccc3c(N)nccc3c2)CC1` [Example 35.08] had an IC50 of 1 to 3 µM. The same measure for `CN1CCC(N(C)Cc2sc(C(=O)NCc3ccc4c(N)nccc4c3)cc2Cl)CC1` [Example 2.47]: 10 to 40 µM. In the case of `Nc1nccc2cc(CNC(=O)c3cc(Cl)c(CNCC(=O)NC4CCCC4)s3)ccc12` [Example 2.43] it was 10 to 40 µM; in that of `COc1cccc(CNCc2sc(C(=O)NCc3ccc4c(N)nccc4c3)cc2Cl)c1` [Example 2.06], 10 to 40 µM; in that of `Nc1nccc2cc(CNC(=O)c3cc(Cl)c(CNCc4ccc5c(c4)OCO5)s3)ccc12` [Example 2.28], 10 to 40 µM.

Turning to `Nc1nccc2cc(CNC(=O)c3cc(Cl)c(COc4cccc(N5CCNCC5)c4)s3)ccc12` [Example 7.05], the IC50 was in the range of 1 to 3 µM. `Nc1nccc2cc(CNC(=O)c3cc(Cl)c(CNCc4ccc(CN5CCCC5=O)cc4)s3)ccc12` [Example 2.57]: the IC50 lay within 3 to 10 µM. The compound `Nc1nccc2cc(CNC(=O)c3cc(Cl)c(CNCc4ccccc4)s3)ccc12` [Example 2.02] showed an IC50 of 10 to 40 µM. In turn, `CN1CCN(CCNCc2sc(C(=O)NCc3ccc4c(N)nccc4c3)cc2Cl)CC1` [Example 2.19] displayed an IC50 of 3 to 10 µM. In turn, `CN1CCCc2cc(CNCc3sc(C(=O)NCc4ccc5c(N)nccc5c4)cc3Cl)ccc21` [Example 2.29] displayed an IC50 of 10 to 40 µM. Consider `CS(=O)(=O)c1cccc(CNCc2sc(C(=O)NCc3ccc4c(N)nccc4c3)cc2Cl)c1` [Example 2.12], for which the IC50 lay in the range of 3 to 10 µM. In the case of `Nc1nccc2cc(CNC(=O)c3cc(Cl)c(COCCn4ccnc4)s3)ccc12` [Example 7.16], the IC50 lay within 3 to 10 µM. In the case of `Nc1nccc2cc(CNC(=O)c3cc(Cl)c(CNCC4CCN(Cc5ccccc5)CC4)s3)ccc12` [Example 2.40] it was 3 to 10 µM; in that of `Nc1nccc2cc(CNC(=O)c3cc(Cl)c(COCc4cncnc4)s3)ccc12` [Example 7.21], 3 to 10 µM; in that of `Nc1nccc2cc(CNC(=O)c3cc(Br)cs3)ccc12` [Example 25.13], 3 to 10 µM. The compound `CN(C)CCOc1ccc(CNCc2sc(C(=O)NCc3ccc4c(N)nccc4c3)cc2Cl)cc1` [Example 2.35] registered an IC50 of 3 to 10 µM. `Nc1nccc2cc(CNC(=O)c3cc(Cl)c(CN4CC(O)C4)s3)ccc12` [Example 5.11]: the half-maximal inhibitory concentration (IC50) was 10 to 40 µM. The same measure for `Cc1sc(C(=O)NCc2ccc3c(N)nccc3c2)cc1Br` [Example 25.02]: 3 to 10 µM; for `Nc1nccc2cc(CNC(=O)c3cc(Cl)c(COCC4CCN(Cc5ccccc5)CC4)s3)ccc12` [Example 7.18]: 10 to 40 µM. With `Nc1nccc2cc(CNC(=O)c3cc(Cl)c(CNC4CCOCC4)s3)ccc12` [Example 2.17], the IC50 lay in the range of 10 to 40 µM.

On to `COCCNCc1sc(C(=O)NCc2ccc3c(N)nccc3c2)cc1Cl` [Example 2.09], for which the IC50 lay within 10 to 40 µM.

In the case of `CS(=O)(=O)c1ccc(NCc2sc(C(=O)NCc3ccc4c(N)nccc4c3)cc2Cl)cc1` [Example 2.49], the IC50 fell in the range of 3 to 10 µM. Regarding `COc1ccccc1CNCc1sc(C(=O)NCc2ccc3c(N)nccc3c2)cc1Cl` [Example 2.07], the IC50 was 10 to 40 µM. Consider `CN1CCN(CCCNCc2sc(C(=O)NCc3ccc4c(N)nccc4c3)cc2Cl)CC1` [Example 2.37], for which the IC50 is 3 to 10 µM.

The compound `Nc1nccc2cc(CNC(=O)c3cc(Cl)c(COCCN4CCCC4)s3)ccc12` [Example 7.14] gave an IC50 of 3 to 10 µM. As for `Nc1nccc2cc(CNC(=O)c3cc(Cl)c(COCCCn4cccn4)s3)ccc12` [Example 7.28], the IC50 was 10 to 40 µM.

As for `CS(=O)(=O)c1ccc(CNCc2sc(C(=O)NCc3ccc4c(N)nccc4c3)cc2Cl)cc1` [Example 2.11, N-[(1-Aminoisoquinolin-6-yl)methyl]-4-chloro-5-({[(4-methanesulfonylphenyl)methyl]amino}methyl)thiophene-2-carboxamide], the IC50 was in the range of 3 to 10 µM.

The values are drawn from patent US20220289727A1, “ENZYME INHIBITORS” (KALVISTA PHARMACEUTICALS LIMITED, priority 2019, published 2022).
